Source: ChEMBL document CHEMBL4476878, “Galactokinase inhibitors” (2013)
Activity calls are given as the source filed them.

Assays:
[1] = biological target: Galactokinase (Homo sapiens) (UniProt P51570); assay: Inhibition of His6-tagged recombinant human GALK expressed in Escherichia coli HMS174 (DE3) incubated for 60 mins using galactose and ATP by Kinase-Glo reagent based assay
Saccharomyces cerevisiae = assay: Inhibition of Saccharomyces cerevisiae hexokinase
[2] = system: Geobacillus stearothermophilus; assay: Inhibition of Bacillus stearothermophilus glucokinase
[3] = biological target: Galactokinase (Homo sapiens) (UniProt P51570); assay: Inhibition of His6-tagged recombinant human GALK expressed in Escherichia coli HMS174 (DE3) by pyruvate kinase/lactate dehydrogenase-coupled assay
[4] = biological target: T1, 4-diphosphocytidyl-2-C-methyl-D-erythritol kinase (Escherichia coli (strain K12)) (UniProt P62615); assay: Inhibition of purified Escherichia coli CDP-ME kinase IspE expressed in Escherichia coli HMS174 at 10 to 50 uM by luciferase-luciferin based luminescence-based assay
T1 sequence (whole entry): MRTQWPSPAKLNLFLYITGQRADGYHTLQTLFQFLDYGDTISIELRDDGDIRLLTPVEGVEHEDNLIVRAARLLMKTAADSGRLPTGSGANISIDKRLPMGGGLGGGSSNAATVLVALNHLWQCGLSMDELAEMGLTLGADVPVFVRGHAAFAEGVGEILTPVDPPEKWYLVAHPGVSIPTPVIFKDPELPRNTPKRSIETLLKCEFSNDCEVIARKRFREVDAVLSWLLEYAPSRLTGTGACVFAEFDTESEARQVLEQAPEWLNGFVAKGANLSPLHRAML

[5] = biological target: Galactokinase (Homo sapiens) (UniProt P51570); assay: Inhibition of His6-tagged recombinant human GALK expressed in Escherichia coli HMS174 (DE3) at 5 to 15 uM incubated for 60 mins using galactose and ATP by Kinase-Glo reagent based assay

Measured: inhibition

Chain of Galactokinase (Homo sapiens) (P51570 whole entry): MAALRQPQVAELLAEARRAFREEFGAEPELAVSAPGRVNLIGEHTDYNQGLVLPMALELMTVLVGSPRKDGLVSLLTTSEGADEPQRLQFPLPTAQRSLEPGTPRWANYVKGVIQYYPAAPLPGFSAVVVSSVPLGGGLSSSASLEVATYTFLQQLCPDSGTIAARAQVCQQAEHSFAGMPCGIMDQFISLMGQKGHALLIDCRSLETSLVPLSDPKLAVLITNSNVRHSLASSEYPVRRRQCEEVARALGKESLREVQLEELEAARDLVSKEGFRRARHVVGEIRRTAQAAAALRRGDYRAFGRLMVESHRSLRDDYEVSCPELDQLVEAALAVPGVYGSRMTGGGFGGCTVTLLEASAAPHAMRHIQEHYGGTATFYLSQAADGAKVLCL

O=C1OC(c2ccccc2)OC(=O)C1=C/C=C/c1ccccc1 (stereo not drawn)
active: [1] | Saccharomyces cerevisiae | [2]

O=C1OC2(CCCC2)OC(=O)C1=Cc1ccc(OCc2ccccc2)cc1
active: [1] | Saccharomyces cerevisiae | [2]

N#CC1=C(SCc2ccccc2)SC(c2ccc(C(=O)O)cc2)NC1=O (stereo not drawn)
active: [1] | Saccharomyces cerevisiae | [2]

COc1cc(/C=C2/SC(=S)NC2=O)ccc1OC(=O)c1cccc(C)c1
active: [1] | Saccharomyces cerevisiae | [2]

N#Cc1ccc(CSc2nc(-c3cccs3)c3c(c2C(=O)O)CCCC3)cc1
active: [1] | Saccharomyces cerevisiae | [2]

O=C1OC2(c3ccccc31)c1cc(I)c(O)c(I)c1Oc1c2cc(I)c(O)c1I
active: [1] | Saccharomyces cerevisiae | [2]

Cc1ccc(CSc2nc(C(=O)O)ccc2C#N)cc1
active: [1] | Saccharomyces cerevisiae | [2]

CC(C)(C)C(=O)Nc1ccc2c(c1)C(=O)C(=O)c1ccccc1-2
active: [3] | [1] | Saccharomyces cerevisiae | [2]

COC(=O)CSC1=C(C#N)C(=O)NC(c2ccccc2O)S1 (stereo not drawn)
active: [1] | Saccharomyces cerevisiae | [2]

Oc1c(Cl)cc(Cl)cc1Sc1cc(Cl)cc(Cl)c1O
active: [1] | Saccharomyces cerevisiae | [2]

Cn1c(=S)[nH]c2sc3c(c2c1=O)CCC(C(C)(C)C)C3 (stereo not drawn)
active: [1] | Saccharomyces cerevisiae | [2]

O=C1O[C@H](c2ccccc2)[C@H](c2ccccc2)N2[C@H]1[C@@H](C(=O)O)[C@]1(C(=O)Nc3ccc(C#CC4(O)CCCCCC4)cc31)[C@H]2c1ccc(OCCO)cc1
active: [1] | Saccharomyces cerevisiae | [2]

N#Cc1c(-c2ccc(Cl)cc2)nc(SCc2ccccc2)[nH]c1=S
active: [1] | Saccharomyces cerevisiae | [2]

O=C1C=C2N(c3ccccc3)CCOC2(O)c2ccccc21 (stereo not drawn)
active: [1] | Saccharomyces cerevisiae | [2]

O=C1NC(=S)N(c2cccc3ccccc23)C(=O)/C1=C/c1c[nH]c2ccccc12
active: [1] | Saccharomyces cerevisiae | [2]

Cc1cccc(OCCOc2ccc(Br)cc2/C=C2\SC(=S)NC2=O)c1
active: [1] | Saccharomyces cerevisiae | [2]

CC(C)OC1(O)C(=O)c2ccccc2C(=O)C1(O)OC(C)C (stereo not drawn)
active: [1] | Saccharomyces cerevisiae | [2]

CC1(c2ccccc2)CC(C)(C)N2C(=O)/C(=C3/SC(=O)NC3=O)c3cccc1c32 (stereo not drawn)
active: [3] | [1] | Saccharomyces cerevisiae | [2]

O=C(NC1(O)C(=O)c2ccccc2C1=O)c1cnn(-c2ccccc2)c1C(F)(F)F
active: [1] | Saccharomyces cerevisiae | [2]

CC(C)(C)c1cc(/C=C2/SC(=S)NC2=O)cc(C(C)(C)C)c1O
active: [1] | Saccharomyces cerevisiae | [2]

Cc1cc2c(C(C)C)c(O)c(O)c(C=O)c2c(O)c1-c1c(C)cc2c(C(C)C)c(O)c(O)c(C=O)c2c1O
active: [4]

CC1=NN(c2cccc(C(=O)O)c2)C(=O)/C1=C/c1ccc(-c2cccc(Cl)c2C)o1
active: [1] | Saccharomyces cerevisiae | [2]

Cc1c(O)c(C(=O)CC(C)C)c2oc3c(C(=O)CC(C)C)c(O)c(C)c(O)c3c2c1O
active: [1] | Saccharomyces cerevisiae | [2]

O=C1Nc2ccc(I)cc2/C1=C/c1cc(Br)c(O)c(Br)c1
active: [1] | Saccharomyces cerevisiae | [2]

CC1(C)CCC2=C(O1)c1ccccc1C(=O)C2=O
active: [1] | Saccharomyces cerevisiae | [2]

CCOc1cccc(NC(=O)C2CC(=O)N(/N=C(\C)c3ccc(Br)s3)C(=N)S2)c1 (stereo not drawn)
active: [1] | Saccharomyces cerevisiae | [2]

N#CC1=C(SCc2ccccc2)SC(c2ccccc2O)NC1=O (stereo not drawn)
active: [1] | Saccharomyces cerevisiae | [2]

O=C1NC(=O)N(c2ccccc2)C(=O)/C1=C/c1c2ccccc2cc2ccccc12
active: [1] | Saccharomyces cerevisiae | [2]

O=C1C(NS(=O)(=O)c2ccccc2)=C/C(=N\S(=O)(=O)c2ccc(F)cc2)c2ccccc21
active: [1] | Saccharomyces cerevisiae | [2]

COC1=C(N)C(=O)c2nc(-c3nc(C(=O)O)c(C)c(-c4ccc(OC)c(OC)c4O)c3N)ccc2C1=O
active: [3] | [1] | Saccharomyces cerevisiae | [2]

Oc1c(Cl)cc(Cl)c(Cl)c1Cc1c(O)c(Cl)cc(Cl)c1Cl
active: [3] | [1] | Saccharomyces cerevisiae | [2]

Cc1c(N=c2c(=O)c3ccccc3c2=O)c(=O)n(-c2ccccc2)n1C
active: [1] | Saccharomyces cerevisiae | [2]

CCSC1=C(C#N)C(=O)NC(/C=C/c2ccccc2)S1 (stereo not drawn)
active: [1] | Saccharomyces cerevisiae | [2]

CC1=NOC(=O)/C1=C\c1ccc(-c2ccccc2)o1
active: [1] | Saccharomyces cerevisiae | [2]

c1ccc(-c2cnc3nonc3n2)cc1
active: [1] | Saccharomyces cerevisiae | [2]

Nc1ncnc2c1ncn2[C@@H]1O[C@H](COP(=O)(O)OP(=O)(O)OP(O)(O)=S)[C@@H](O)[C@H]1O
active: [5]
